What is called IC50 is the concentration that inhibits the measured activity by half. Read a low IC50 as higher potency. A word on the pEC50: it is the negative decadic logarithm of the EC50, by convention in mol/L. High values mean a small EC50, low ones a large EC50. By solubility is commonly meant the dissolved amount per volume that the medium holds. A high value points to much dissolved substance.

Here are results for one compound from patent US20230219939A1, “N-(1-CYANO-PYRROLIDIN-3-YL)-5-(3-(TRIFLUOROMETHYL)PHENYL)OXAZOLE-2-CARBOXAMIDE DERIVATIVES AND THE CORRESPONDING OXADIAZOLE DERIVATIVES AS USP30 INHIBITORS FOR THE TREATMENT OF MITOCHONDRIAL DYSFUNCTION” (MISSION THERAPEUTICS LIMITED, priority 2020, published 2023).

One series has as its target T1, UCHL1 (Homo sapiens, UniProt P09936).
T1 sequence (P09936 1-223): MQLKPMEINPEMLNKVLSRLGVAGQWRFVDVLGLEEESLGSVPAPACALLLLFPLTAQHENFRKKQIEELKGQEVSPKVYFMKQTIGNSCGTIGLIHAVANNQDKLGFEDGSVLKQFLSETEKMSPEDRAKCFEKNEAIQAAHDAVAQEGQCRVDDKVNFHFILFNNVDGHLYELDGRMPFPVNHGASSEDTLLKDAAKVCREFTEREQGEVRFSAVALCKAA
Briefly: UCHL1 DUB IC50. Format: biochemical.

The subject of series [1] is HCT116 human colorectal carcinoma cells. The series is described as follows: In vitro cytotoxicity (Cell Tox), alamarBlue. Format: cell-based. The conditions noted are these: HCT-116, 96-hour continual compound exposure. From the text:
There is also a need for compounds that have a favourable safety profile, which may be measured by a variety of standard in vitro and in vivo methods. A cell toxicity counter-screen may be used to assay the anti-proliferative/cytotoxic effect in a particular cell line (e.g. HCT116) by fluorometric detection of rezasurin (alamarBlue™) to resofurin in response to mitochondrial activity.
Measured in HCT116 human colorectal carcinoma cells using alamarBlue™ as the assay endpoint. Compound cytotoxicity was measured over a period of 96-hour continual compound exposure.

A further series can be described thus: Turbidimetric solubility. Conditions: aqueous buffer, kinetic from dmso stock. The series is classed as physicochemical. From the text:
Turbidimetric solubility: Test compound solution prepared in DMSO diluted into aqueous buffer.
Turbidimetry is used as the end-point by measuring absorbance at 620 nm.

For another series, the system named is hepatocytes. Briefly: Hepatocyte Cl human. Format: in vitro ADME. As to the method:
Hep Cl human: in vitro hepatocyte clearance in human cells.
Clu: in vitro clearance. Clu as defined here is the scaled clearance, in turn calculated from the intrinsic clearance. The intrinsic clearance is the predicted clearance due to hepatic metabolic reactions, determined from incubation of a compound in a hepatocyte preparation.

The nature of the next series: Mouse plasma stability. Format: in vitro ADME.
The nature of series [2]: Brain homogenate binding, equilibrium dialysis. The series is classed as in vitro ADME. Conditions: mouse, read-out: Binding Mouse Brain fu, br. The source says: Brain fu,br: The free fraction of a compound in brain homogenate preparation determined by in vitro equilibrium dialysis. It is understood that only unbound (free) compound is capable of engaging with the target.
A general note: In equilibrium dialysis only unbound substance equilibrates across the membrane.

A short description of a further series: PK mouse 2 mg/kg iv. Format: in vivo. Conditions: plasma, read-out: Cl plasma. From the text:
Cl in vivo clearance: Pharmacokinetic measurement of the volume of plasma (or any matrix) from which a substance is completely removed per unit time.

Another series concerns TOM20 ubiquitylation. Briefly: TOM20-ubiquitylation assay. The conditions noted are these: Antimycin A/oligomycin mitophagy trigger. The series is classed as cell-based, human. From the text: Human cell lines can be challenged with mitochondrial depolarizing agents (ionophores (eg. CCCP, valinomycin), mitochondrial complex inhibitors (oligomycin, antimycin A)) to induce ubiquitylation of TOM20, which is then further promoted in the presence of USP30 inhibitors. TOM20 ubiquitylation is subsequently assessed through western blotting of the cell lysates, with TOM20 ubiquitylation adduct detection possible due to an 8 kDa molecule weight increase for each molecule of ubiquitin added, resulting in laddering of a TOM20 immunoreactive band. TOM20-ubiquitylation levels can be quantified using chemiluminescence densitometry of laddered immunoreactive bands.

A further series has as its system UUO injured kidneys. The series is described as follows: Unilateral ureteral obstructive kidney disease model (UUO). Format: in vivo, C57BL/6 mice. The conditions noted are these: 10 days. The source says: UUO causes renal injury characterised by tubular cell injury, interstitial inflammation and fibrosis. It serves as a model of irreversible post-renal acute kidney injury (AKI). Experimental UUO has illustrated the molecular mechanisms of apoptosis, inflammation and fibrosis, all of which are key processes in renal injury, regardless of the primary insult. Consequently, the UUO model provides investigators information beyond obstruction (Chevalier et al, 2009, Kidney Int 75(11): 1145-1152). Example 1 was assessed in the UUO model to determine the ability of the compound to attenuate progressive tubulointerstitial fibrosis and chronic kidney disease (CKD). On day 1 of the study, adult C57BL/6 mice were dosed by oral gavage according to one of the following dosing regimens; Vehicle or 15 mg/kg Example 1 (p.o.) BID. Two hours post dosing on day 1 study mice underwent surgery to ligate the left ureter at two points. Successful UUO surgery was later confirmed by observation of dilation of renal pelvis due to hydronephrosis. The animals were dosed according to their prescribed regimen for 10 days at which point kidneys were harvested, or histopathology assessment and for protein/RNA assessment. Picrosirius Red staining was performed to assess the extent of collagen deposition and IHC was employed to assess relative α-Smooth Muscle Actin (α-SMA) expression.

pEC50: −log10 of the molar value. A value given as a limit tells only on which side of the number the result lay.

Consider `COC[C@@H]1C[C@@H](NC(=O)c2ncc(-c3cccc(C(F)(F)F)c3)o2)CN1C#N` [Example 1, N-((3R,5S)-1-Cyano-5-(methoxymethyl)-pyrrolidin-3-yl)-5-(3-(trifluoromethyl)phenyl)oxazole-2-carboxamide], for which the IC50 on UCHL1 is > 300 µM. Also, the pEC50 in series [1] was < 4.52. The solubility in “Turbidimetric solubility” is > 100 µM. Moreover, the “Hepatocyte Cl human Scaled Clu” value in the series with hepatocytes was 10.3 mL/min/kg. In the series “Mouse plasma stability”, the “plasma stability compared to Reference Example B (in words)” value is “significantly improved plasma stability”. The half-life in “Mouse plasma stability” (mouse plasma, read-out: Stability Mouse plasma t1/2) was 5.98 h. For the same compound, in series [2], the fraction unbound was determined as 0.05. Further, the clearance in “PK mouse 2 mg/kg iv” came out at 19 mL/min/kg. In addition, in the series with TOM20 ubiquitylation, the “TOM20-Ub 1.5-fold gain EC1.5x” value is 0.020 µM. Moreover, the “α-SMA levels in UUO injured kidneys (IHC)” value in the series with UUO injured kidneys (15 mg/kg oral BID, vs vehicle treated controls) was “statistical reduction in α-SMA levels”. For the same compound, in the series with UUO injured kidneys (15 mg/kg p.o. BID, vs vehicle), the “collagen deposition (picrosirius red staining) in ligated kidneys” value is recorded as “statistically reduced collagen deposition”.
